# Tested on: citrus greening (HLB)
# Type: in vivo, orange tree
compound,measurement,setting,value
OC[C@H]1O[C@H](O[C@H]2O[C@H](CO)[C@@H](O)[C@H](O)[C@H]2O)[C@H](O)[C@@H](O)[C@@H]1O [trehalose],new leaf formation on apparently dead branches,"as late as four months after treatment, tree seriously afflicted with citrus greening",new leaves that are formed even on apparently dead branches
same,condition of tree after foliar treatment,"four months after one foliar treatment to the canopy of leaves, 1 gram trehalose per 1 gallon of water, 100 gallons/acre",nearly complete renewal of the tree
same,development of flowers,three months after single foliar treatment,prolific development of flowers

# Source: patent publication US20130281298A1 (priority 2012, published 2013)
